From patent publication US6040149A, “Assay for identifying agents which act on the ceramide-activated protein kinase, kinase suppressor of ras, and methods of using said agents” (priority 1997, dated 2000)

Tests used:
[1] = tested on: ceramide-activated protein kinase; test: EGFR peptide phosphorylation by kinase in A-431 microsomal membranes / postnuclear supernatant; assay type: biochemical, human (A-431 epidermoid carcinoma cells)
[2] = target: T1, KSR (Mus musculus, UniProt Q61097); test: KSR autophosphorylation after treatment of COS-7 cells expressing KSR; assay type: cell-based, mouse (KSR expressed in COS-7 cells); details: TNFα 10 nM
T1 sequence (Q61097 1-873): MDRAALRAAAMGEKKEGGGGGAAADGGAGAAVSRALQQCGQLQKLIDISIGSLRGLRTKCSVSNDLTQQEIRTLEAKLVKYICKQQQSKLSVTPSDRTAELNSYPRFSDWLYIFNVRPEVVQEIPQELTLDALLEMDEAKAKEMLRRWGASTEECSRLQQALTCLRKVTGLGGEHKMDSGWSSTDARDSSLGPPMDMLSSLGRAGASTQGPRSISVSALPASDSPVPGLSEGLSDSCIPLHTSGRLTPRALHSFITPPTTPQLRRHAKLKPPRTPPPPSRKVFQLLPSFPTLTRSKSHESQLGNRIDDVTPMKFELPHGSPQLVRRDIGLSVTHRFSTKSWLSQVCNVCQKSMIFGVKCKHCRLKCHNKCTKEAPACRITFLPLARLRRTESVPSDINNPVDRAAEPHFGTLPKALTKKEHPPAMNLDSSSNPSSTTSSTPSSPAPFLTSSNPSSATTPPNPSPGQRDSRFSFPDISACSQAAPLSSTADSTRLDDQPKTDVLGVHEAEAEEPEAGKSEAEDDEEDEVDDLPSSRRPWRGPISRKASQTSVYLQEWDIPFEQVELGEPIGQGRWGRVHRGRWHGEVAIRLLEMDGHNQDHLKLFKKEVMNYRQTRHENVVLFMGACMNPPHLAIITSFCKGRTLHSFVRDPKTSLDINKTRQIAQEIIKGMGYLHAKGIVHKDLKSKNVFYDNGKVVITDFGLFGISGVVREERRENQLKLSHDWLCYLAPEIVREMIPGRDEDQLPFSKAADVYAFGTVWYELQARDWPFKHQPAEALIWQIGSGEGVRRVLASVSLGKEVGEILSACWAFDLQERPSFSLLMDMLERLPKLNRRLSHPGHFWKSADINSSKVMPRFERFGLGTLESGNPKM
Description: FIG. 23A--COS-7 cells were transfected as in FIG. 22A and placed in serum-free medium. After 4 hours, cells were stimulated for 10 min with the ceramide analog, C2-ceramide (Biomol), at the concentrations indicated. Cells were lysed with NP-40 lysis buffer, and Flag-tagged KSR (0.8 mg protein for each point) was immunoprecipitated and assayed for autophosphorylation activity as described in Experimental Procedures. The autoradiogram was exposed for 1 hour. KSR is expressed at similar levels in each sample as monitored by Western blot (data not shown). Data represent one of three similar experiments.
COS-7 cells expressing Flag-tagged KSR were stimulated with 10 nM TNFα for the times indicated and lysed with NP-40 buffer as in FIG. 2A. […] The autoradiogram was exposed for 1 hour. Data represent one of three similar experiments.
KSR was immunoprecipitated as above from 0.8 mg NP-40 lysate protein with 40 μl agarose-conjugated anti-Flag antibody at 4° C. for 4 hrs or overnight. […] The reaction was stopped by addition of Laemmli sample buffer. Samples were resolved by 7.5% sodium dodecyl sulfate-polyacrylamide gel electrophoresis (SDS-PAGE) and autoradiographed.

| Molecule | EGFR peptide phosphorylation, fold of control ([1]; 2 minutes of stimulation, maximal effect for ceramide at 1 μM) | effect on EGFR peptide phosphorylation ([1]; words) | KSR autophosphorylating activity [2] | time to maximal effect ([2]; autophosphorylation, Raf-1 phosphorylation and activation) |
| --- | --- | --- | --- | --- |
| CCCCCCCCCCCCC/C=C/[C@@H](O)[C@@H](N)CO [sphingosine] | 1.6 fold of control | similarly effective | – | – |
| TNF-α | – | – | time-dependent enhancement | ≤ 20 min |
